From patent US20070212331A1, “Methods and compositions for selectively killing cells” (priority 2006, published 2007)
“Also recorded” adds a separate entry of the source. Like-named read-outs stand apart in the source and are kept apart here. Where a SMILES comes first, the peptide text is derived from it. The star is where a group is joined. Cbz = O=C(OCc1ccccc1)*; CH2F = FC*

Key:
[1] = test system: IIC9 cells (embryonic fibroblasts); assay: IIC9 cell death by trypan blue uptake; format: cell-based; details: for effect on cell viability: high (mM) concentrations; for attenuation of zinc-induced cell death: Z-VAD preincubation; for cell death: 6 h (FIG. 1A)
PC12 cells = assay: Zinc-induced cell death of PC12 cells; format: cell-based; design: cell lysis (indicative of necrosis) of PC12 cells: dose or concentration left out as unconfirmed; details: for effect on cell viability: high (mM) concentrations
ERK1/2 = ERK1/2 activation in IIC9 cells, Western blot with anti-pERK antibody; format: cell-based; design: time until ERK activation is detected after zinc addition / time ERK activation remains elevated: dose or concentration left out as unconfirmed; details: for effect of inhibitor on ERK activation by zinc: IIC9 cells preincubated with inhibitor
Method: (§1) Assays: ERK1/2 activation was determined by harvesting cells directly in boiling SDS-PAGE sample buffer and probing corresponding Western Blots with anti-pERK antibody (Cell Signaling). Blots were stripped and reprobed for total ERK (Cell Signaling). Ras activation was determined using the Raf-RBD assay (21,24). Identification of the specific Ras isoform activated was determined by probing the western blot with isoform-specific antibody (Upstate Biotechnology). Transfection of IIC9 cells was carried out using Novafector. Transfection efficiency of these cells is approximately 90%. The constructs for expression of dn-Ras and Bcl-Xl were kindly provided by Dr. J. Corbett and Dr. Chinnaduri (SLU).

[2] = test system: IIC9 cells (embryonic fibroblasts); assay: IIC9 cell morphology, microscopic examination; format: cell-based
Method: FIG. 1 depicts zinc-induced cell death in a time and dose dependent manner. (A) IIC9 cells (embryonic fibroblasts) were serum starved for 2 days and treated with the indicated concentrations of zinc for the indicated time periods. Cell death was monitored by trypan blue exclusion as described in the Materials and Methods. (B-D) Zinc-induced cell death is accompanied by morphological changes associated with apoptosis and necrosis. Shown are cells that were incubated with either 50 μM (C) or 200 μM (D) zinc for 6 hours. Control cells (B) were untreated. Cells were examined microscopically for changes in cell shape and size. […] Cell debris, indicative of cell lysis, was evident.
Cells and Incubation Conditions: IIC9 cells were grown in DMEM containing 10% FCS, P/S. Cells were plated in 12-well plates and grown to approximately 70% confluency. At that time, cells were serum arrested by changing the medium to DMEM (low glucose) without FCS. After 48 hours, cells were treated with zinc as described in the text. Cell death was quantified by trypan blue uptake. Cells were incubated with trypan blue (0.04%) for 5 min. Cells were examined microscopically and the number of blue cells and total cells were counted. Four fields were examined for each condition, with a minimum of 100 cells/field. To examine the effects of selective inhibitors, cells were preincubated with the indicated compound for 30 min. prior to zinc treatment.

ERK = ERK activation (pERK) in PC12 cells; format: cell-based
Ras = Ras activation in IIC9 cells, Raf-RBD pull-down assay; format: cell-based; details: for Ras isoform activated: isoform-specific antibody
Method: as §1
Because Ras is a common upstream activator of ERK1/2 (36), we reasoned that zinc may induce the phosphorylation of ERK1/2 via Ras. This was examined by incubating IIC9 cells with 100 uM zinc and assessing Ras activation by RBD pull-down of GTP-Ras followed by Western blot analysis with a pan-Ras antibody. […] The critical role of Ras in mediating the effects of zinc was confirmed by examining the effect of over-expression of dnRas. […] Consistent with Ras as the upstream activator of the cytotoxic effect of zinc on IIC9, expression of dn H-Ras also attenuates zinc-mediated cell death (FIG. 5B).

RAW (macrophage) cells = assay: Zinc-induced death of RAW (macrophage) cells; format: cell-based
Method: Exemplary cell types were treated in vitro with varying amounts of zinc (zinc chloride or zinc sulfate), in the presence or absence of the zinc ionophore pyrithione.

[3] = test system: PC3 cells (prostate cancer cell line); assay: Killing of PC3 cells by zinc and zinc-containing liposomes; format: cell-based; details: PC3 cells in culture (FIG. 6)
Method: These cells express high levels of the transferrin receptor and can be targeted by covalently attaching transferrin to the formed liposomes.
We next tested the ability of these liposomes to kill PC3 cells in culture (FIG. 6).
Non-prophetically, zinc containing liposomes were prepared by injecting ethanolic solutions of lipids into 10 mM Hepes buffer pH 6 containing 2.5 M ZnCl2. To make the ethanolic lipid solution, lipids initially dissolved in chloroform were dried by passing gaseous nitrogen over the solution. The dried lipids were dissolved in ethanol at a concentration of […] of phospholipids per mL of alcohol. The alcoholic lipid solution containing dioleoyl phosphatidyly choline, 1,2 dioleoyl phosphatidyly ethanolamine, 1,2 dioleolyl phosphatidyletanolamine-N-4-(p-maleimido-phenyl)butyramide) and cholesterol in a ratio of 7:2:0.05:1 was slowly (0.5 ml/min) injected through a Hamilton syringe into 3 mL of a magnetically stirred Hepes buffer, containing 2.5 mM ZnCl2 The final concentration of ethanol was between 2.5-7.5%. During injection of the lipids, the solution was constantly stirred by a standard magnetic stirrer. To ensure that the temperature of the liposome solution was well above the phase transition of the lipids, the temperature was kept at […]. […]

[4] = test system: CD4+ CD8+ alpha beta TCR10CD3(10) thymocytes; details: 80-200 μM zinc; cited from earlier work
[5] = test system: N18TG2 (neuroblastoma) cells; assay: Zinc-induced death of N18TG2 (neuroblastoma) cells; format: cell-based; details: 24 h incubation
Method: Exemplary cell types were treated in vitro with varying amounts of zinc (zinc chloride or zinc sulfate), in the presence or absence of the zinc ionophore pyrithione. […] Cell death involves both apoptosis and necrosis as determined by morphological observation.

[6] = PC12 cells, same range of concentrations as zinc
[7] = IIC9 cells, same range of concentrations as zinc

## [Ca] [Ca]
[1]; IIC9 cells
  effect on cell viability: no effect on cell viability
PC12 cells; PC12 cells
  effect on cell viability: no effect on cell viability

## [Cd] [Cd]
PC12 cells; [6]
  cell death (apoptosis or necrosis) by metal salts: did result in cell death

## [Cl-].[Cl-].[Co+2] [CoCl2]
[1]
  cell death by metal salts: does not result in the cell death
PC12 cells
  cell death (apoptosis or necrosis) by metal salts: No cell death

## O=S(=O)([O-])[O-].[Cu+2] [CuSO4]
[1]; [7]
  cell death by metal salts: does not result in the cell death
PC12 cells; [6]
  cell death (apoptosis or necrosis) by metal salts: No cell death

## [Li] [Li]
[1]; IIC9 cells
  effect on cell viability: no effect on cell viability
PC12 cells; PC12 cells
  effect on cell viability: no effect on cell viability

## [Mg] [Mg]
[1]; IIC9 cells
  effect on cell viability: no effect on cell viability
PC12 cells; PC12 cells
  effect on cell viability: no effect on cell viability

## [Mn] [Mn]
[1]; IIC9 cells
  effect on cell viability: no effect on cell viability
PC12 cells; PC12 cells
  effect on cell viability: no effect on cell viability

## [Cl][Ni][Cl] [NiCl2]
[1]; [7]
  cell death by metal salts: does not result in the cell death
PC12 cells; [6]
  cell death (apoptosis or necrosis) by metal salts: No cell death

## COc1cc2ncnc(Nc3cccc(Br)c3)c2cc1OC [PD153035]
ERK1/2
  effect of inhibitor on ERK activation by zinc: does not alter ERK activation

## CC(C)(C)n1nc(-c2ccc(Cl)cc2)c2c(N)ncnc21 [PP2]
ERK1/2
  effect of inhibitor on ERK activation by zinc: does not inhibit zinc activation of ERK1/2

## C[S+]([O-])c1ccc(-c2nc(-c3ccncc3)c(-c3ccc(F)cc3)[nH]2)cc1 (stereo not shown) [SB203580]
[1]; 30 min preincubation, then 50 μM zinc (FIG. 2A)
  effect of preincubation with inhibitor on zinc-mediated cell death: does not affect zinc-mediated cell death

## N#CC(=C(/N)Sc1ccccc1N)/C(C#N)=C(\N)Sc1ccccc1N [U0126]
[1]
  cell death in cells pretreated with inhibitor: Little or no death
  effect of preincubation with inhibitor on zinc-mediated cell death: inhibits zinc-induced cell death
ERK1/2
  effect of inhibitor on ERK activation by zinc: significantly reduces ERK activation; also recorded: significantly reduced
PC12 cells
  effect of preincubation on zinc-induced cell death: greatly attenuated
[2]; cells preincubated with inhibitor, 50 μM zinc (FIG. 2B-D)
  effect on morphological changes induced by zinc: limited; also recorded: prevented the morphological changes
ERK; PC12 cells preincubated with inhibitor
  effect of preincubation on zinc-induced ERK activation: attenuated that activation

## CC(NC(=O)C(NC(=O)OCc1ccccc1)C(C)C)C(=O)NC(CC(=O)O)C(=O)CF (stereo not drawn) [Z-VAD] (Cbz-Val-Ala-Asp-CH2F; configuration not given here)
[1]; 50 μM zinc, first 6 hours of zinc treatment
  cell death in cells pretreated with Z-VAD: little cell death
[1]; 50 μM zinc, 21 h
  attenuation of zinc-induced cell death: 50%
[1]; 100 μM zinc, 21 h
  attenuation of zinc-induced cell death: limited attenuation
[1]; 100 μM zinc, first 6 hours
  attenuation of zinc-induced cell death: approximately 50%
[1]; early hours (3-6), indicated zinc concentrations (FIG. 3A)
  effect of Z-VAD on zinc-mediated cell death: greatly attenuated death

## O=S(=O)([O-])[O-].[Zn+2] [ZnSO4]
[1]; [7]
  cell death by metal salts: equally effective as ZnCl2
PC12 cells; [6]
  cell death (apoptosis or necrosis) by metal salts: equally effective as ZnCl2

## [Cl-].[Cl-].[Zn+2] [zinc]
Ras; IIC9 cells, 100 uM zinc, pan-Ras antibody (FIG. 5A)
  activation of Ras: ~5 fold
Ras; IIC9 cells
  Ras isoform activated: selective activation of H-Ras
[1]; 50 μM zinc, 6-h incubation, experiment of FIG. 2A
  death of the population: approximately 25%
[1]; 50 μM zinc
  cell death: ~15%
[1]; 100 μM zinc
  cell death: ~25%
[1]; 200 μM zinc
  cell death: approximately 45%
[1]; IIC9 cells, in the absence of pyrithione
  extracellular zinc concentration necessary to induce the death pathway: ≥ 50 µM
[1]; addition of zinc
  cell death of IIC9 cells: time- and concentration-dependent
[1]; zinc concentrations as high as 200 μM, first few hours
  cell death during the first few hours: Little or no death
RAW (macrophage) cells; 25 μM zinc, 0.0 hours of incubation
  % cell death: 0.0%
RAW (macrophage) cells; 25 μM zinc, 1.0 hours of incubation
  % cell death: 0.0%
RAW (macrophage) cells; 25 μM zinc, 3.0 hours of incubation
  % cell death: 0.0%
RAW (macrophage) cells; 25 μM zinc, 5.0 hours of incubation
  % cell death: 0.0%
RAW (macrophage) cells; 50 μM zinc, 5.0 hours of incubation
  % cell death: 0.0%
RAW (macrophage) cells; 50 μM zinc, 18.0 hours of incubation
  % cell death: 20.0%
RAW (macrophage) cells; 100 μM zinc, 18.0 hours of incubation
  % cell death: 100.0%
[3]
  cell death of PC3 cells: underwent cell death
ERK1/2; IIC9 cells, western blotting with pERK antibody (FIG. 2E)
  induction of pERK: does induce pERK
ERK1/2; IIC9 cells, zinc
  time until ERK activation is detected after zinc addition: ≤ 5 min
ERK1/2; IIC9 cells, zinc, longest time period examined
  time ERK activation remains elevated: at least 6 h
PC12 cells; higher zinc concentrations or longer time periods
  cell lysis (indicative of necrosis) of PC12 cells: significant cell lysis
PC12 cells; undifferentiated or differentiated PC12 cells, in vitro
  cell death of PC12 cells: time and dose-dependent cell death
[4]
  thymocytes in which apoptosis was induced: 40%
[2]; 50 μM zinc, 6 hours (FIG. 1C)
  cell morphology: rounded and displayed differing degrees of cell shrinkage
[2]; 50 μM zinc, first few hours of incubation
  cell population displaying a rounded morphology: approximately 50%
[2]; 200 μM zinc, 6 hours (FIG. 1D)
  cell morphology: more varied morphology
[2]; 100 or 200 uM zinc, first few hours
  cell morphology: all cells were rounded and underwent differing degrees of cell shrinkage
ERK; PC12 cells, after zinc treatment
  time until pERK could be detected: within five minutes
ERK; PC12 cells, longest time period examined
  time pERK remained at that level: at least five hours
ERK; zinc treatment of PC12 cells
  ERK activation: induced ERK activation
[5]; 25 μM zinc
  % death: 19%
[5]; 50 μM zinc
  % death: 75%
[5]; 75 μM zinc
  % death: 84%
[5]; 150 μM zinc
  % death: 90%

## thrombin
Ras; IIC9 cells stimulated with thrombin, previous finding of the inventors
  activation of Ras: 3- to 5 fold
Ras; IIC9 cells
  Ras isoform activated: rapid activation of N-Ras, followed by a sustained activation of K-Ras
